Laboratory results from the supplement of paper PMC10949913.

Experiments:
Assay in all cases: area under concentration-response curve (viability) (AUC (a.u.)); higher = less active
Conditions in all cases: 48 h
CU-ACC1 = tested on: CU-ACC1
Outline: (§1)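 Three adrenocortical carcinoma cell lines in 1,536-well plates received 23 nL of each library compound at 11 concentrations and were read with CellTiter-Glo after 48 h, with 15 minutes at room temperature before measuring luminescence. Vehicle and empty-well controls served for per-plate normalisation. AC50 and area under the curve were extracted from fitted concentration-response curves, discarding all curve classes other than inhibitory or non-responding.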

NCI-H295R = tested on: NCI-H295R
Outline: as §1

CU-ACC2 = tested on: CU-ACC2
Outline: as §1

Structure (SMILES): Cc1oncc1C(=O)Nc1ccc(C(F)(F)F)cc1
- area under concentration-response curve (CU-ACC1): 421
- area under concentration-response curve (NCI-H295R): 481
- area under concentration-response curve (CU-ACC2): 498

Structure (SMILES): O=C(O)c1ccc(CCCc2ccc(OCCc3ccc(F)cc3)cc2)o1
- area under concentration-response curve (CU-ACC1): 536
- area under concentration-response curve (NCI-H295R): 548
- area under concentration-response curve (CU-ACC2): 616

Structure (SMILES): O=P(O)(O)C(O)(Cc1cccnc1)P(=O)(O)[O][Na] (configuration not stated)
- area under concentration-response curve (CU-ACC1): 508
- area under concentration-response curve (NCI-H295R): 533
- area under concentration-response curve (CU-ACC2): 573

Structure (SMILES): CCC(C)N1\N=C/N(C1=O)C2=CC=C(C=C2)N3CCN(CC3)C4=CC=C(OC[C@H]5CO[C@@](C[N]6C=NC=N6)(O5)C7=CC=C(Cl)C=C7Cl)C=C4 (some centres not stated)
- area under concentration-response curve (CU-ACC1): 556
- area under concentration-response curve (NCI-H295R): 574
- area under concentration-response curve (CU-ACC2): 676

Structure (SMILES): CO[C@H]1O[C@@H]2O[C@@]3(C)CC[C@H]4[C@H](C)CC[C@@H]([C@H]1C)[C@@]24OO3
- area under concentration-response curve (CU-ACC1): 470
- area under concentration-response curve (NCI-H295R): 506
- area under concentration-response curve (CU-ACC2): 553

Structure (SMILES): C[S+](=O)([O-])Nc1ccc([N+](=O)[O-])cc1Oc1ccccc1
- area under concentration-response curve (CU-ACC1): 544
- area under concentration-response curve (NCI-H295R): 583
- area under concentration-response curve (CU-ACC2): 639

Structure (SMILES): Cc1ccc(Nc2nccc(N(C)c3ccc4c(C)n(C)nc4c3)n2)cc1[S+](N)(=O)[O-]
- area under concentration-response curve (CU-ACC1): 516
- area under concentration-response curve (NCI-H295R): 570
- area under concentration-response curve (CU-ACC2): 620

Structure (SMILES): Oc1ccc(/C=C/c2cc(O)cc(O)c2)cc1
- area under concentration-response curve (CU-ACC1): 482
- area under concentration-response curve (NCI-H295R): 547
- area under concentration-response curve (CU-ACC2): 574

Structure (SMILES): CC[C@H](NC(=O)[C@H](C[S+](=O)([O-])CC1CC1)N[C@@H](c1ccc(F)cc1)C(F)(F)F)C(=O)C(=O)NC1CC1
- area under concentration-response curve (CU-ACC1): 534
- area under concentration-response curve (NCI-H295R): 538
- area under concentration-response curve (CU-ACC2): 510

Structure (SMILES): O=C(Cc1ccc(-c2ccc(OCCN3CCOCC3)cc2)cn1)NCc1ccccc1
- area under concentration-response curve (CU-ACC1): 397
- area under concentration-response curve (NCI-H295R): 493
- area under concentration-response curve (CU-ACC2): 531

Structure (SMILES): N=C(N)NC(=N)NCCc1ccccc1
- area under concentration-response curve (CU-ACC1): 525
- area under concentration-response curve (NCI-H295R): 573
- area under concentration-response curve (CU-ACC2): 626

Structure (SMILES): N#C/N=C(\NCCCCCCOc1ccc(Cl)cc1)Nc1ccncc1
- area under concentration-response curve (CU-ACC1): 269
- area under concentration-response curve (NCI-H295R): 425
- area under concentration-response curve (CU-ACC2): 367

Structure (SMILES): Oc1ccc(C2CCN(c3ccnc4ccccc34)CC2)cc1O
- area under concentration-response curve (CU-ACC1): 497
- area under concentration-response curve (NCI-H295R): 523
- area under concentration-response curve (CU-ACC2): 549

Structure (SMILES): CC(C)[C@H](CO)Nc1nc(Nc2ccc(C(=O)O)c(Cl)c2)c2ncn(C(C)C)c2n1
- area under concentration-response curve (CU-ACC1): 529
- area under concentration-response curve (NCI-H295R): 594
- area under concentration-response curve (CU-ACC2): 626

Structure (SMILES): CCCCCCCCCCCCc1ccc([S+](=O)([O-])Nc2nncs2)cc1
- area under concentration-response curve (CU-ACC1): 543
- area under concentration-response curve (NCI-H295R): 527
- area under concentration-response curve (CU-ACC2): 604

Structure (SMILES): CCCC1OC2C[C@H]3[C@@H]4CCC5=CC(=O)C=C[C@]5(C)[C@H]4C(O)C[C@]3(C)[C@]2(C(=O)CO)O1 (some centres not stated)
- area under concentration-response curve (CU-ACC1): 562
- area under concentration-response curve (NCI-H295R): 607
- area under concentration-response curve (CU-ACC2): 661

Structure (SMILES): CCCCCN(CCC12CC3CC(CC(C3)C1)C2)C(=O)NCCCc1ccncc1
- area under concentration-response curve (CU-ACC1): 472
- area under concentration-response curve (NCI-H295R): 453
- area under concentration-response curve (CU-ACC2): 519

Structure (SMILES): C=C1/C(=C/C=C2\CCCC3(C)[C@@H]([C@H](C)/C=C/C=C/C(O)(CC)CC)CC[C@@H]23)C[C@@H](O)C[C@@H]1O (some centres not stated)
- area under concentration-response curve (CU-ACC1): 480
- area under concentration-response curve (NCI-H295R): 522
- area under concentration-response curve (CU-ACC2): 576

Structure (SMILES): Nc1nc(Cl)nc2c1ncn2[C@H]1C[C@H](O)[C@@H](CO)O1
- area under concentration-response curve (CU-ACC1): 558
- area under concentration-response curve (NCI-H295R): 537
- area under concentration-response curve (CU-ACC2): 601

Structure (SMILES): Cc1cccc(-c2nn(C(=S)Nc3ccccc3)cc2-c2ccnc3ccccc23)n1
- area under concentration-response curve (CU-ACC1): 506
- area under concentration-response curve (NCI-H295R): 470
- area under concentration-response curve (CU-ACC2): 590

Structure (SMILES): CC(C)C[C@H](NC(=O)[C@@H](O)[C@H](N)Cc1ccccc1)C(=O)O
- area under concentration-response curve (CU-ACC1): 459
- area under concentration-response curve (NCI-H295R): 494
- area under concentration-response curve (CU-ACC2): 571

Structure (SMILES): CN(Cc1ccccc1)C(=O)c1ccc([S+](=O)([O-])Nc2ccccc2)cc1
- area under concentration-response curve (CU-ACC1): 491
- area under concentration-response curve (NCI-H295R): 519
- area under concentration-response curve (CU-ACC2): 550

Structure (SMILES): C=CC(=O)N1CCC(CNc2ncnc(N)c2-c2ccc(Oc3ccccc3)cc2)CC1
- area under concentration-response curve (CU-ACC1): 550
- area under concentration-response curve (NCI-H295R): 566
- area under concentration-response curve (CU-ACC2): 615

Structure (SMILES): COc1ccc([S+](=O)([O-])N[C@@H](CNc2nc(C)nc(N3CCC(c4ccc5c(n4)NCCC5)CC3)c2C)C(=O)O)cc1
- area under concentration-response curve (CU-ACC1): 554
- area under concentration-response curve (NCI-H295R): 589
- area under concentration-response curve (CU-ACC2): 441

Structure (SMILES): NCCCC(N)(C(=O)O)C(F)F (configuration not stated)
- area under concentration-response curve (CU-ACC1): 443
- area under concentration-response curve (NCI-H295R): 491
- area under concentration-response curve (CU-ACC2): 514

Structure (SMILES): CCCCCCCCCCCCCCCCCCOP(=O)([O-])OC1CC[N+](C)(C)CC1
- area under concentration-response curve (CU-ACC1): 418
- area under concentration-response curve (NCI-H295R): 449
- area under concentration-response curve (CU-ACC2): 534

Structure (SMILES): Cc1c(Cn2c(C)nc3c(C(=O)O)cc(N4CCOCC4)cc32)cccc1C(F)(F)F
- area under concentration-response curve (CU-ACC1): 444
- area under concentration-response curve (NCI-H295R): 519
- area under concentration-response curve (CU-ACC2): 524

Structure (SMILES): COC(=O)[C@H](c1ccccc1Cl)N1CCc2sccc2C1
- area under concentration-response curve (CU-ACC1): 510
- area under concentration-response curve (NCI-H295R): 521
- area under concentration-response curve (CU-ACC2): 551

Structure (SMILES): O=C(O)c1cccnc1
- area under concentration-response curve (CU-ACC1): 579
- area under concentration-response curve (NCI-H295R): 548
- area under concentration-response curve (CU-ACC2): 604

Structure (SMILES): OCCN1C[C@H](O)[C@@H](O)[C@H](O)[C@H]1CO
- area under concentration-response curve (CU-ACC1): 519
- area under concentration-response curve (NCI-H295R): 489
- area under concentration-response curve (CU-ACC2): 540

Structure (SMILES): Cn1cc(-c2ccc3nnc(C(F)(F)c4ccc5ncccc5c4)n3n2)cn1
- area under concentration-response curve (CU-ACC1): 478
- area under concentration-response curve (NCI-H295R): 502
- area under concentration-response curve (CU-ACC2): 583

Structure (SMILES): CN[C@@H]1[C@@H](O)[C@@H](O[C@@H]2[C@@H](O)[C@H](O[C@H]3O[C@H](CN)[C@@H](O)[C@H](O)[C@H]3O)[C@@H](N)C[C@H]2NC(=O)C(O)CN)OC[C@]1(C)O.O=S(=O)(O)O (some centres not stated)
- area under concentration-response curve (CU-ACC1): 526
- area under concentration-response curve (NCI-H295R): 553
- area under concentration-response curve (CU-ACC2): 601

Structure (SMILES): COc1ccc2[nH]cc(CCNC(C)=O)c2c1
- area under concentration-response curve (CU-ACC1): 592
- area under concentration-response curve (NCI-H295R): 578
- area under concentration-response curve (CU-ACC2): 668

Structure (SMILES): Cc1ccc(C(=O)c2cc(O)c(O)c([N+](=O)[O-])c2)cc1
- area under concentration-response curve (CU-ACC1): 551
- area under concentration-response curve (NCI-H295R): 598
- area under concentration-response curve (CU-ACC2): 645

Structure (SMILES): CC1COC2(CCN(CC2)C/3=N/C(=O)C4=CC(=CC(=C4S3)[N+]([O-])=O)C(F)(F)F)O1 (configuration not stated)
- area under concentration-response curve (CU-ACC1): 416
- area under concentration-response curve (NCI-H295R): 462
- area under concentration-response curve (CU-ACC2): 472

Structure (SMILES): O=C(NCc1ccccc1)[C@H](Cc1ccccc1)NC(=O)[C@H]1O[C@@H]1C(=O)NCCc1ccc(O)cc1
- area under concentration-response curve (CU-ACC1): 495
- area under concentration-response curve (NCI-H295R): 524
- area under concentration-response curve (CU-ACC2): 557

Structure (SMILES): C[C@@H]1[C@H](O)[C@@H](C)/C=C/C=C/C=C/C=C/C=C/C=C/C=C/[C@H](O[C@@H]2O[C@H](C)[C@@H](O)[C@H](N)[C@@H]2O)C[C@@H]2O[C@](O)(C[C@@H](O)C[C@@H](O)[C@H](O)CC[C@@H](O)C[C@@H](O)CC(=O)O[C@H]1C)C[C@H](O)[C@H]2C(=O)O
- area under concentration-response curve (CU-ACC1): 550
- area under concentration-response curve (NCI-H295R): 595
- area under concentration-response curve (CU-ACC2): 633

Structure (SMILES): CN1C(=O)N(c2cc(Cl)cc(Cl)c2)C(=O)[C@]12CN(Cc1cc(C(=O)O)cs1)C[C@H]2c1ccc(C#N)cc1
- area under concentration-response curve (CU-ACC1): 401
- area under concentration-response curve (NCI-H295R): 404
- area under concentration-response curve (CU-ACC2): 420

Structure (SMILES): Cc1nc2ccc(-n3ncc(C(=O)c4cc5ccccc5[nH]4)c3N)cc2[nH]1
- area under concentration-response curve (CU-ACC1): 550
- area under concentration-response curve (NCI-H295R): 519
- area under concentration-response curve (CU-ACC2): 595
